Test systems include SR leukemia; COLO 205 colon; HL-60(TB) leukemia; K-562 leukemia; MOLT-4 leukemia; RPMI-8226 leukemia; CCRF-CEM leukemia; HCT-15 colon; ACHN renal; SK-MEL-5 melanoma; OVCAR-8 ovarian; MDA-MB-468 breast; NCI-H460 NSCLC.
Assay in all cases: NCI anticancer screen, dose series, 384-well format

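GI50 = concentration required for 50% inhibition of growth. TGI: concentration producing complete growth inhibition.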 Bounds are passed on as bounds.

Turning to `Nc1ncn(C2CC(O)C(CO)O2)c(=O)n1` (centres undefined), the GI50 in the assay on SR leukemia is 2920 nM; in the assay on COLO 205 colon, 65600 nM; in the assay with HL-60(TB) leukemia, 629 nM; with K-562 leukemia, 1280 nM; with MOLT-4 leukemia it was 39.7 nM; in the assay on RPMI-8226 leukemia, 225 nM. Moreover, the GI50 is 706 nM in the assay with CCRF-CEM leukemia; greater than 31200 nM in the assay with HCT-15 colon; 7840 nM in the assay with ACHN renal; 705 nM with SK-MEL-5 melanoma; greater than 32900 nM in the assay on OVCAR-8 ovarian; less than 18.3 nM in the assay with MDA-MB-468 breast. In the assay with NCI-H460 NSCLC, the GI50 was 1980 nM. This compound had a TGI in the assay with MDA-MB-468 breast of 53.2 nM.

For the origin of these results see PubChem BioAssay (NCI).
